Converted amounts (≈) assume the structure as drawn. “And” between values parts separate entries of the source, which are not always exact repeats. Equal values may be shown once. Read-outs that look alike come from different tables or passages of the source.
What was measured:
[1] = system: HIV-1 strains containing the 100 Leu→Ile mutation in their RT; details: cited from earlier work
[2] = system: 181 Tyr→Cys mutation in the RT of HIV-1 strains; details: cited from earlier work
[3] = system: HIV-1/190-Glu; experiment: inhibition of syncytium formation in CEM cells, HIV-1 RT mutant 190-Glu; format: cell-based; details: Human immunodeficiency virus 1, CCRF-CEM, 96 h, read-out: EC50 190-Glu
Description: (§1) CEM cells were obtained from the American Tissue Cell Culture Collection (Rockville, Md.) . HIV-1 (IIIB) was originally obtained from the culture supernatant of persistently HIV-1-infected H9 cells and was provided by R. C. Gallo and M. Popovic (National Cancer Institute, National Institutes of Health, Bethesda, Md.).
(§2) The selection and characterization of the HIV-1 RT mutant strains were done as follows: HIV-1/100-Ile ("100-Ile") was selected for resistance against TIBO R82150 as described in Balzarini et al, Virology 192: 246-253 (1993); HIV-1/103-Asn ("103-Asn") was selected for resistance against TIBO R82913 as described in Balzarini et al, Virology 192: 246-253 (1993); HIV-1/106-Ala ("106-Ala") was selected for resistance against nevirapine as described in Balzarini et al, J. Virol. 67: 5353-5359 (1993); HIV-1/Lys-138 ("Lys-138") was selected for resistance against TSAO-m^3T as described in Balzarini et al, Virology 192: 246-253 (1993) and Balzarini et al, Proc. Nat. Acad. Sci. USA 90: 6952-6956 (1993); HIV-1/181-Cys ("181-Cys") was selected for resistance against pyridinone L-697,661 as described in Balzarini et al, Virology 192: 246-253 (1993); and HIV-1/188-His ("188-His") was selected for resistance against HEPT as described in Balzarini et al, Mol. Pharmocol. 44: 694-701 (1993). 188-His was then further converted to HIV-1/188-Leu ("188-Leu") upon further passage in cell culture in the absence of the HEPT. HIV-1/101-Glu ("101-Glu") and HIV-1/190-Glu ("190-Glu") were selected for resistance against the thiocarboxanilide derivative designated as UC38 as described in Balzarini et al, Antiviral Research 27: 219-236 (1995). HIV-1/184-Ile ("184-Ile") was selected for resistance against the combination of 3TC and TSAO-m^3 T as described in Balzarini et al, Molecular Pharm. 49: 882-890 (1996). HIV-1/184-Val ("184-Val") was selected for resistance against 3TC as described in Balzarini et al, Molecular Pharm. 49: 882-890 (1996).
(§3) CEM cells were suspended at ≈300,000 cells per ml of culture medium and infected with approximately 100 CCID50 (CCID50 being the 50% cell culture infective dose) of HIV-1(IIIB) (designated as "WT" in Table 3) or one of the HIV-1 RT mutant strains described above. Then 100 μl of the infected cell suspensions was added to 200 μl microtiter plate wells containing 100 μl of appropriate serial (5-fold) dilutions of the test compounds. The inhibitiory effect of the test compounds on HIV-1 induced syncytium formation in CEM cells was examined microscopically on day 4 post infection. The 50% effective concentration (EC50) was defined as the test compound concentration that inhibits syncytium formation in the HIV-1-infected cell cultures by 50%.

[4] = system: HIV-1/101-Glu; experiment: inhibition of syncytium formation in CEM cells, HIV-1 RT mutant 101-Glu; format: cell-based; details: Human immunodeficiency virus 1, CCRF-CEM, 96 h, read-out: EC50 101-Glu
Description: as §1, §2, §3

[5] = system: HIV-1/188-His; experiment: inhibition of syncytium formation in CEM cells, HIV-1 RT mutant 188-His; format: cell-based; details: Human immunodeficiency virus 1, CCRF-CEM, 96 h, read-out: EC50 188-His
Description: as §1, §2, §3

[6] = system: HIV-1/106-Ala; experiment: inhibition of syncytium formation in CEM cells, HIV-1 RT mutant 106-Ala; format: cell-based; details: Human immunodeficiency virus 1, CCRF-CEM, 96 h, read-out: EC50 106-Ala
Description: as §1, §2, §3

[7] = system: 103-Ala; experiment: inhibition of syncytium formation in CEM cells, HIV-1 RT mutant 103-Ala; format: cell-based; details: Human immunodeficiency virus 1, CCRF-CEM, 96 h, read-out: EC50 103-Ala
[8] = system: HIV-1 (IIIB); experiment: inhibition of HIV-1(IIIB) (WT) induced syncytium formation in CEM cells; format: cell-based
Description: as §1, §3

[9] = system: HIV-1/100-Ile; experiment: inhibition of syncytium formation in CEM cells, HIV-1 RT mutant 100-Ile; format: cell-based; details: Human immunodeficiency virus 1, CCRF-CEM, 96 h, read-out: EC50 100-Ile
Description: as §1, §2, §3

[10] = system: HIV-1/184-Ile; experiment: inhibition of syncytium formation in CEM cells, HIV-1 RT mutant 184-Ile; format: cell-based; details: Human immunodeficiency virus 1, CCRF-CEM, 96 h, read-out: EC50 184-IIe
Description: as §1, §2, §3

[11] = system: HIV-1/184-Val; experiment: inhibition of syncytium formation in CEM cells, HIV-1 RT mutant 184-Val; format: cell-based; details: Human immunodeficiency virus 1, CCRF-CEM, 96 h, read-out: EC50 184-Val
Description: as §1, §2, §3

[12] = system: 138-Lys; experiment: inhibition of syncytium formation in CEM cells, HIV-1 RT mutant 138-Lys; format: cell-based; details: Human immunodeficiency virus 1, CCRF-CEM, 96 h, read-out: EC50 138-Lys
Description: as §1, §2, §3

[13] = system: HIV-1/181-Cys; experiment: inhibition of syncytium formation in CEM cells, HIV-1 RT mutant 181-Cys; format: cell-based; details: Human immunodeficiency virus 1, CCRF-CEM, 96 h, read-out: EC50 181-Cys
Description: as §1, §2, §3

[14] = system: HIV-1/188-Leu; experiment: inhibition of syncytium formation in CEM cells, HIV-1 RT mutant 188-Leu; format: cell-based; details: Human immunodeficiency virus 1, CCRF-CEM, 96 h, read-out: EC50 188-Leu
Description: as §1, §2, §3

[15] = Human immunodeficiency virus 1, IIIB, CCRF-CEM, 96 h, Table 3, HIV-1(IIIB), day 4 post infection, read-out: EC50 WT
[16] = Table 2, day 4 post infection, replicate values, read-out: EC50, Activity Against HIV-1 (IIIB)
[17] = Human immunodeficiency virus 1, IIIB, CCRF-CEM, 96 h, Table 2, day 4 post infection, replicate values, read-out: EC50, Activity Against HIV-1 (IIIB)

Compound	resistance of 100 Leu→Ile mutant strains [1]	resistance of 181 Tyr→Cys mutant strains [2]	EC50 [3] [µg/mL]	EC50 [4] [µg/mL]	EC50 [5] [µg/mL]	EC50 [6] [µg/mL]	EC50 [7] [µg/mL]	EC50 [8, 15] [µg/mL]	EC50 [8, 16]	EC50 [9] [µg/mL]	EC50 [10] [µg/mL]	EC50 [11] [µg/mL]	EC50 [12] [µg/mL]	EC50 [13] [µg/mL]	EC50 [14] [µg/mL]	EC50 [8, 17] [nM]
CC(C)=CCN1Cc2cc(Cl)cc3[nH]c(=S)n(c23)CC1C (single isomer, unassigned) [TIBO R82913]	resistant	–	–	–	–	–	–	–	–	–	–	–	–	–	–	–
Cc1ccnc2c1NC(=O)c1cccnc1N2C1CC1 [nevirapine]	–	resistant	–	–	–	–	–	–	–	–	–	–	–	–	–	–
Cc1occc1C(=S)Nc1ccc(Cl)c(COc2cccc([N+](=O)[O-])c2)c1 [Compound 27]	–	–	> 2	0.55	> 2	1.57	> 2	0.03	121 nM and 340 nM	0.7	0.11	0.4	0.23	0.5	> 2	–
COc1ccccc1OCc1cc(NC(=S)c2ccoc2C)ccc1Cl [Compound 22]	–	–	> 2	0.75	0.85	1	2.73 (≈ 7.04 µM)	0.011	209 nM	0.4	0.025	0.018	0.075	0.41	> 2	160
Cc1occc1C(=S)Nc1ccc(Cl)c(COc2ccccc2[N+](=O)[O-])c1 [Compound 19]	–	–	> 2	0.17	0.12	0.13	0.52 (≈ 1.29 µM)	0.0023	39.3 nM	0.08	0.0045	0.0041	0.0075	0.13	1.35	27.1
CCc1ccccc1OCc1cc(NC(=S)c2ccoc2C)ccc1Cl [Compound 44]	–	–	> 2	0.65	0.25	1.1	> 2	0.0065	30.7 nM and 18 nM and 95.4 nM	0.41	0.04	0.018	0.16	> 2	0.35	–
CC(C)=CCN1Cc2cccc3[nH]c(=S)n(c23)CC1C (single isomer, unassigned) [Compound R82150]	resistant	–	–	–	–	–	–	–	–	–	–	–	–	–	–	–
CC(=O)OCc1ccccc1OCc1cc(NC(=S)c2ccoc2C)ccc1Cl [Compound 15]	–	–	≥ 2	> 2	> 2	> 2	> 2	0.49	–	> 2	1.2	0.5	> 2	> 2	> 2	–

— patent US6143780A, “N-arylmethylthioanilide compounds useful for the inhibition of the replication of HIV” (Uniroyal Chemical Company, Inc., priority 1999, dated 2000)
